Here are results for four compounds from US20180126014A1, “COMPOSITIONS FOR ENHANCING DELIVERY OF AGENTS ACROSS THE BLOOD BRAIN BARRIER AND METHODS OF USE THEREOF” (Yale University, priority 2015, published 2018).

The test system of series [1] is intracranial GL261 tumors. Particulars: NPs co-loaded with IR780 and BBB modulator, three consecutive days, imaged 24 h after last injection. On the procedure: For the intracranial GL261 tumor implantation, 5-6 week old female C57BL6 mice were anesthetized via intraperitoneal injection of ketamine hydrochloride (75 mg/kg, Abbot Laboratories) and xylazine (7.5 mg/kg, Phoenix Pharmaceutical) in sterile saline. Twenty thousand GL261 cells in 2 μL of PBS were injected into the right striatum (1.8 mm lateral to the bregma and 3 mm of depth) using a stereotactic fixation device with mouse adaptor. For the subcutaneous GL261 xenograft model, 1×10^6 GL261 cells in 100 μL of PBS were inoculated subcutaneously into the right flank region of female C57BL6 mice. For the intracranial U87-MG glioma model, 1×10^6 U87-MG cells in 2 μL of PBS was injected into the right striatum of BALB/c nude mice using the same procedures.
(§1) Then the hair on the head was shaved and mice were anesthetized and imaged using the IVIS fluorescence imaging system on day 20. Finally, mice were sacrificed and organs resected for further imaging.
At 24 h after the last injection, the hair on the head was shaved and mice were anesthetized and imaged using an IVIS imaging system (Xenogen). Finally, mice were sacrificed and organs resected for further imaging. The fluorescence signal intensity of excised organs was quantified using Living Image 3.0.
as §1

Series [2] deals with T1, A3 adenosine receptor (Homo sapiens, UniProt P0DMS8).
T1 sequence (P0DMS8 1-318): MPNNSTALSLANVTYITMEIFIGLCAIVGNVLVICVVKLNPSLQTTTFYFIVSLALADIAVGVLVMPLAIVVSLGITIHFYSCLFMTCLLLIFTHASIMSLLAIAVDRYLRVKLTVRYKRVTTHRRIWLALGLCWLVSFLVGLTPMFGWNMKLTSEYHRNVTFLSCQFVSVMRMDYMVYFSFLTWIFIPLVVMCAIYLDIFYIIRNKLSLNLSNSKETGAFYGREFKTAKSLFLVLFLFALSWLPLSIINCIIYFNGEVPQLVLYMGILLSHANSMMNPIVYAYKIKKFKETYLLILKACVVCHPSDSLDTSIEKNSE
Particulars: cited from earlier work.

Series [3] concerns the target T2, A2B adenosine receptor (Homo sapiens, UniProt P29275).
T2 sequence (P29275 1-332): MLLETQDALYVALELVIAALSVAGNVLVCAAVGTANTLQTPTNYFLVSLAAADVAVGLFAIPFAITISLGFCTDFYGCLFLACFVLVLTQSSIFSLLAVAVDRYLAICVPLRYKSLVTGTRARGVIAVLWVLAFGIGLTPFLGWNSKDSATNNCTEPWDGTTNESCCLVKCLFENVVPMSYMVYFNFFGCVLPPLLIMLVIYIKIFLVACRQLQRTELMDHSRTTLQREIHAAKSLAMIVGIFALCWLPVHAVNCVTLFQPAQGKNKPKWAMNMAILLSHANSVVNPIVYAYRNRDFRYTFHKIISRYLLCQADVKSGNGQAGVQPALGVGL
The conditions noted are these: cited from earlier work.

Series [4] concerns the target T3, A1 adenosine receptor (Homo sapiens, UniProt P30542).
T3 sequence (P30542 1-326): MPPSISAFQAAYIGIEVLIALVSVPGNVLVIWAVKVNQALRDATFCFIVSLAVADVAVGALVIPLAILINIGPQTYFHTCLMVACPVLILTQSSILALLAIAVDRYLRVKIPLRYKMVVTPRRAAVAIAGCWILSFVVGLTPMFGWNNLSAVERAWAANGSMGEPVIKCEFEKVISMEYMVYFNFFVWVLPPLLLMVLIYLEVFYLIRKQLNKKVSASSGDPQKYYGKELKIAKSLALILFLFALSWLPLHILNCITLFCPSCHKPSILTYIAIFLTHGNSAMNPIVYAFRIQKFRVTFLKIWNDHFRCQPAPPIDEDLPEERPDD
The conditions noted are these: cited from earlier work.

Series [5] deals with MDA-MB-231Br brain metastases. The series is described as follows: Paclitaxel-loaded ABTT NPs in MDA-MB-231Br derived brain metastasis model. The conditions noted are these: three times a week for three weeks. Format: in vivo, mice. As for the experimental part:
Nanoparticles were prepared similarly to those described above for Examples 1 and 6, but including the CTX targeting moiety as described in Example 6. […] Briefly, for synthesis of paclitaxel-loaded NPs, 100 mg mIII-62% in 2 mL DCM containing 2.5 mg LEXISCAN® and 20 mg paclitaxel was added dropwise to 4 mL 2.5% PVA under vortex and sonicated to form a oil/water emulsion. The emulsion was poured into a beaker containing 0.3% PVA and stirred for 3 h to evaporate DCM. NPs were collected by centrifugation at 20000 rpm for 30 min. The precipitate was suspended in PBS and reacted with thiolated CTX […] at room temperature. Nanoparticles were collected, suspended in H2O and lyophilized for storage and characterization.
In both studies, mice were treated with nanoparticles for three times a week for three weeks at a dose of 2 mg/mouse. It is believed that enhanced efficacy can be achieved with a higher dose treatment (maximum tolerated dose >15 mg per treatment) or with extended treatment time.

Each structure is given as a SMILES string.

Regarding `CCNC(=O)[C@H]1O[C@@H](n2cnc3c(N)ncnc32)[C@H](O)[C@@H]1O` [NECA, 1-(6-Amino-9H-purin-9-yl)-1-deoxy-N-ethyl-β-D-ribofuranuronamide], in series [1], the “delivery of CTX-mHph2-III-62% NPs to the brain with encapsulated BBB modulator” value (shortened to “delivery of CTX-mHph2-III-62% NPs”) is given as “significantly enhanced delivery”.

For the compound `CNC(=O)c1cnn(-c2nc(N)c3ncn([C@@H]4O[C@H](CO)[C@@H](O)[C@H]4O)c3n2)c1` [Regadenoson, 2-{4-[(methylamino)carbonyl]-1H-pyrazol-1-yl}adenosine], in series [2], the affinity entry is “weak, if any”. Moreover, in series [1], the “delivery of CTX-mHph2-III-62% NPs” value is on record as “significantly enhanced delivery”. Besides, the affinity result in series [3] is “weak, if any”. Moreover, in series [4], the Ki was greater than 16.5 µM and the “lower affinity for the A1 adenosine receptor than for A2A” value was “at least 10 fold”.

As for `CC(=O)O[C@H]1C(=O)[C@@]2(C)[C@H]([C@H](OC(=O)c3ccccc3)[C@]3(O)C[C@H](OC(=O)[C@H](O)[C@@H](NC(=O)c4ccccc4)c4ccccc4)C(C)=C1C3(C)C)[C@]1(OC(C)=O)CO[C@@H]1C[C@@H]2O` [free paclitaxel, paclitaxel], the median survival time in series [5] amounted to 45 days.

For `Nc1cc(N2CCCCC2)nc(N)[n+]1[O-]` [minoxidil], the “delivery of CTX-mHph2-III-62% NPs” value in series [1] is listed as “significantly enhanced delivery”.

By Ki is commonly meant a dissociation constant, usually derived from enzyme kinetics or from competition with a known ligand.
